Measured values reported in US20250320213A1, “Nitrogen-Containing Heterocyclic Compounds” (Pfizer Inc., priority 2024, published 2025).

How the values were obtained:
STAT6 = molecular target: T1, STAT6 (Homo sapiens, UniProt P42226); assay: STAT6 Reporter Luciferase Assay (IL-13 stimulated HaCaT keratinocyte NanoLuc reporter cells); assay type: cell-based; conditions: IL-13 stimulated HaCaT STAT6 NanoLuc reporter cells; read-out: Reporter EC50
T1 construct: stably transfected HaCaT keratinocyte cell line, which expresses NanoLuc luciferase reporter gene under the transcriptional control of the STAT6 responsive promoter; endogenous in cells; host or cells: HaCaT keratinocyte reporter cell line (stably transfected with a NanoLuc reporter)
T1 sequence (P42226 1-847): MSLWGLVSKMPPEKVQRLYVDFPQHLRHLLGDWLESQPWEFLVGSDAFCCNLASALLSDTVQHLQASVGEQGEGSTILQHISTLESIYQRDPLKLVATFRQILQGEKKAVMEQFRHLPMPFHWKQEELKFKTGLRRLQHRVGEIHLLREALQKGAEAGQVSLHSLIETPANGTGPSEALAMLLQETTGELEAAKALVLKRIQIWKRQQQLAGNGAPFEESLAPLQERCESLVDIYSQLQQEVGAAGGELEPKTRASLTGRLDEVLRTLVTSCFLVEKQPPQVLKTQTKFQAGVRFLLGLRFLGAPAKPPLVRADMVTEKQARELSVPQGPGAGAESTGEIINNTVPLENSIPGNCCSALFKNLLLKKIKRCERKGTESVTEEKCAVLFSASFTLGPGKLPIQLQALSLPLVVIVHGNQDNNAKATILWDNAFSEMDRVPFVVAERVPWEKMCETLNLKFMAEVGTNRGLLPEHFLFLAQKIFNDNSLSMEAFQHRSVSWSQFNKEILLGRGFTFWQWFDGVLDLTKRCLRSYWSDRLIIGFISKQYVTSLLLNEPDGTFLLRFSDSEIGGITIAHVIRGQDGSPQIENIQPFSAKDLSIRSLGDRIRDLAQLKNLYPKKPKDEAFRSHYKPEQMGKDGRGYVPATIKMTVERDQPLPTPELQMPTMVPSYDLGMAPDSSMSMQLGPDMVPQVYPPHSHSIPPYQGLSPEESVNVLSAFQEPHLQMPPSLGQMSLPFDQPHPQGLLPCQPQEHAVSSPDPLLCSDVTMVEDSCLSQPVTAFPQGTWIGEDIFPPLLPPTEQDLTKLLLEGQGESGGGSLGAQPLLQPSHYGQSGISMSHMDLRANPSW
How it was run: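 Compounds were tested as 11-point, 4-fold series in duplicate, applied for 2 h at 37 °C in low-serum (2% FBS) DMEM. The cells were a stable HaCaT line with NanoLuc under a STAT6-responsive IL-13Ra2 promoter. After 4 h with 0.12 nM IL-13, Nano-Glo luminescence was measured.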

[1] = test system: CCL17 secretion in peripheral human whole blood; assay: Human Whole Blood (HWB) CCL17 TR-FRET Assay (IL-13 stimulated CCL17 secretion); assay type: cell-based; conditions: human whole blood, IL-13 stimulated
How it was run: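 Heparinized peripheral human whole blood was preincubated with compound (11-point, 3-fold series, duplicate) for 2 h at 37 °C, then stimulated with IL-13 at 10 ng/mL final for 48 h at 37 °C. Secreted CCL17 in the serum was quantified by TR-FRET sandwich immunoassay (665/615 nm ratio, 16 h RT); IC50 derived.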

| EC50 (STAT6) [nM] | IC50 ([1]; 48 hours) [nM] | IC50 ([1]; Homo sapiens, 48 h) [nM] | Compound |
| --- | --- | --- | --- |
| 42 | 78 |  | CCc1nc(C(=O)NCc2ccc(NC(=O)N(C)C)cc2)c2n1C(C)CN(c1ccc(C(=O)N(C)C)cn1)C2 (single isomer, unassigned) [Example 233, rel-(R or S)-7-(5-(dimethylcarbamoyl)pyridin-2-yl)-N-(4-(3,3-dimethylureido)benzyl)-3-ethyl-5-methyl-5,6,7,8-tetrahydroimidazo[1,5-a]pyrazine-1-carboxamide] |
| 20 |  | 80 | CCC(C)n1nc(C(=O)NCc2ccc(NC(=O)N(C)C)cc2)c2c1CCN(c1ccc(C(=O)N(C)C)cn1)C2 (single isomer, unassigned) [Example 234, rel-(R or S)-1-(sec-butyl)-5-(5-(dimethylcarbamoyl)pyridin-2-yl)-N-(4-(3,3-dimethylureido)benzyl)-4,5,6,7-tetrahydro-1H-pyrazolo[4,3-c]pyridine-3-carboxamide] |
| 15 | 85 |  | CCC(C)n1nc(C(=O)NCc2ccc(NC(=O)N(C)C)cc2)c2c1CCN(c1ccc(C(=O)N(C)C)cn1)C2 (single isomer, unassigned) [Example 235, rel-(R or S)-1-(sec-butyl)-5-(5-(dimethylcarbamoyl)pyridin-2-yl)-N-(4-(3,3-dimethylureido)benzyl)-4,5,6,7-tetrahydro-1H-pyrazolo[4,3-c]pyridine-3-carboxamide] |
| 7 |  | 83 | CC(C1CC1)n1nc(C(=O)NCc2ccc(NC(=O)N(C)C)cc2)c2c1CCN(c1ccc(C(=O)N(C)C)cn1)C2 (single isomer, unassigned) [Example 237, rel-(R or S)-1-(1-cyclopropylethyl)-5-(5-(dimethylcarbamoyl)pyridin-2-yl)-N-(4-(3,3-dimethylureido)benzyl)-4,5,6,7-tetrahydro-1H-pyrazolo[4,3-c]pyridine-3-carboxamide] |
| 2 | 28 |  | CCn1nc(C(=O)NCc2ccc(NC(=O)N(C)C)cc2)c2c1CC(C(F)(F)F)N(c1ccc(C(=O)N(C)C)cn1)C2 (single isomer, unassigned) [Example 250, rel-(R or S)-5-(5-(dimethylcarbamoyl)pyridin-2-yl)-N-(4-(3,3-dimethylureido)benzyl)-1-ethyl-6-(trifluoromethyl)-4,5,6,7-tetrahydro-1H-pyrazolo[4,3-c]pyridine-3-carboxamide] |
| 10 | 80 |  | CCn1nc(C(=O)NCc2ccc(NC(=O)N(C)C)cc2)c2c1CC(C(F)(F)F)N(c1ccc(C(=O)N(C)C)cn1)C2 (single isomer, unassigned) [Example 251, rel-(R or S)-5-(5-(dimethylcarbamoyl)pyridin-2-yl)-N-(4-(3,3-dimethylureido)benzyl)-1-ethyl-6-(trifluoromethyl)-4,5,6,7-tetrahydro-1H-pyrazolo[4,3-c]pyridine-3-carboxamide] |
| 2 |  | 8 | C[C@H]1CN(c2ccc(C(=O)N(C)C)cn2)Cc2c(C(=O)NCc3ccc(NC(=O)N(C)C)cc3)nn(C3CCOCC3)c21 (single isomer, unassigned) [Example 258] |
| 50 | 984 |  | CCC1Cc2c(c(C(=O)NCc3ccc(NC(=O)N(C)C)cc3)nn2C(C)C)CN1c1ccc(C(=O)N(C)C)cn1 (single isomer, unassigned) [Example 267, rel-(R or S)-5-(5-(dimethylcarbamoyl)pyridin-2-yl)-N-(4-(3,3-dimethylureido)benzyl)-6-ethyl-1-isopropyl-4,5,6,7-tetrahydro-1H-pyrazolo[4,3-c]pyridine-3-carboxamide] |
| 3 | 21 |  | CCC1Cc2c(c(C(=O)NCc3ccc(NC(=O)N(C)C)cc3)nn2C(C)C)CN1c1ccc(C(=O)N(C)C)cn1 (single isomer, unassigned) [Example 268, rel-(R or S)-5-(5-(dimethylcarbamoyl)pyridin-2-yl)-N-(4-(3,3-dimethylureido)benzyl)-6-ethyl-1-isopropyl-4,5,6,7-tetrahydro-1H-pyrazolo[4,3-c]pyridine-3-carboxamide] |
| 87 | 834 |  | CCC1Cc2c(c(C(=O)NCc3ccc(NC(=O)N(C)C)cc3)nn2C)CN1c1ccc(C(=O)N(C)C)cn1 (single isomer, unassigned) [Example 269, rel-(R or S)-5-(5-(dimethylcarbamoyl)pyridin-2-yl)-N-(4-(3,3-dimethylureido)benzyl)-6-ethyl-1-methyl-4,5,6,7-tetrahydro-1H-pyrazolo[4,3-c]pyridine-3-carboxamide] |
| 7 | 33 |  | CCC1Cc2c(c(C(=O)NCc3ccc(NC(=O)N(C)C)cc3)nn2C)CN1c1ccc(C(=O)N(C)C)cn1 (single isomer, unassigned) [Example 270, rel-(R or S)-5-(5-(dimethylcarbamoyl)pyridin-2-yl)-N-(4-(3,3-dimethylureido)benzyl)-6-ethyl-1-methyl-4,5,6,7-tetrahydro-1H-pyrazolo[4,3-c]pyridine-3-carboxamide] |
| 11 | 180 |  | CC(C)C1CN(c2ccc(C(=O)N(C)C)cn2)Cc2c(C(=O)NCc3ccc(NC(=O)N(C)C)cc3)nn(C)c21 (single isomer, unassigned) [Example 271, rel-(R or S)-5-(5-(dimethylcarbamoyl)pyridin-2-yl)-N-(4-(3,3-dimethylureido)benzyl)-7-isopropyl-1-methyl-4,5,6,7-tetrahydro-1H-pyrazolo[4,3-c]pyridine-3-carboxamide] |
| 4 | 30 |  | CC(C)C1CN(c2ccc(C(=O)N(C)C)cn2)Cc2c(C(=O)NCc3ccc(NC(=O)N(C)C)cc3)nn(C)c21 (single isomer, unassigned) [Example 272, rel-(R or S)-5-(5-(dimethylcarbamoyl)pyridin-2-yl)-N-(4-(3,3-dimethylureido)benzyl)-7-isopropyl-1-methyl-4,5,6,7-tetrahydro-1H-pyrazolo[4,3-c]pyridine-3-carboxamide] |
| 3 |  | 12 | C[C@H]1CN(c2ncc(C(=O)N(C)C)cn2)Cc2c(C(=O)NCc3ccc(NC(=O)N(C)C)cc3)nn(C)c21 (single isomer, unassigned) [Example 273] |
| 2 | 28 |  | CC(C)n1nc(C(=O)NCc2ccc(NC(=O)N(C)C)cc2)c2c1CC(C(F)(F)F)N(c1ccc(C(=O)N(C)C)cn1)C2 (single isomer, unassigned) [Example 276, rel-(R or S)-5-(5-(dimethylcarbamoyl)pyridin-2-yl)-N-(4-(3,3-dimethylureido)benzyl)-1-isopropyl-6-(trifluoromethyl)-4,5,6,7-tetrahydro-1H-pyrazolo[4,3-c]pyridine-3-carboxamide] |
| 10 | 109 |  | CC(C)n1nc(C(=O)NCc2ccc(NC(=O)N(C)C)cc2)c2c1CC(C(F)(F)F)N(c1ccc(C(=O)N(C)C)cn1)C2 (single isomer, unassigned) [Example 277, rel-(R or S)-5-(5-(dimethylcarbamoyl)pyridin-2-yl)-N-(4-(3,3-dimethylureido)benzyl)-1-isopropyl-6-(trifluoromethyl)-4,5,6,7-tetrahydro-1H-pyrazolo[4,3-c]pyridine-3-carboxamide] |
| 10 |  | 134 | CC1CN(c2ccc(C(=O)N(C)C)cn2)Cc2c1nn1c2C(=O)N(Cc2ccc(NC(=O)N(C)C)cc2)CC1 (single isomer, unassigned) [Example 280, rel-(R or S)-6-(9-(4-(3,3-dimethylureido)benzyl)-4-methyl-10-oxo-3,4,7,8,9,10-hexahydropyrido[4′,3′:3,4]pyrazolo[1,5-alpyrazin-2(1H)-yl)-N,N-dimethylnicotinamide] |

| Compound | EC50 (STAT6) [nM] | IC50 ([1]; 48 hours) [nM] | IC50 ([1]; Homo sapiens, 48 h) [nM] |
| --- | --- | --- | --- |
| CN(C)C(=O)Nc1ccc(CNC(=O)c2nn(C)c3c2[C@H]2CCC[C@@H](C3)N2c2ccc(C(=O)N(C)C)cn2)cc1 (single isomer, unassigned) [Example 274] | 695 |  | 4770 |
| CN(C)C(=O)Nc1ccc(CNC(=O)c2nn(C)c3c2[C@H]2CCC[C@@H](C3)N2c2ccc(C(=O)N(C)C)cn2)cc1 (single isomer, unassigned) [Example 275] | 7 | 30 |  |
